Measured values reported in publication PMC4839570, “Novel Anthra[1,2-c][1,2,5]Thiadiazole-6,11-Diones as Promising Anticancer Lead Compounds: Biological Evaluation, Characterization & Molecular Targets Determination” (PLoS ONE, 2016).

Experiments:
[1] = tested on: Mycobacterium tuberculosis H37Rv; experiment: Antimycobacterial susceptibility, BACTEC MGIT 960 SIRE; assay type: cell-based
[2] = tested on: normal cardiac myoblast H9c2 cells
Protocol: Briefly, 96 well microtiter plates were inoculated with the specified human cancer cell lines in RPMI 1640 medium containing 5% fetal bovine serum and 2 mM L-glutamine at the specified plating densities. The microtiter plates were incubated at 37°C, 5% CO2, and 100% relative humidity for 24 h. The test compounds were solubilized in DMSO at 400-fold the desired final maximum test concentration, diluted with complete medium containing gentamicin and added to the wells of the microtiter plates to achieve the final desired compound concentration, then incubated for an additional 48 h at the same incubation conditions. The media were removed, the cells were fixed then stained with sulforhodamine B and the unbound dye was removed by washing with acetic acid. The bound dye was resolubilized with trizma base and the absorbance at 515 nm was measured. Cells were stained with the WST-1 cell proliferation reagent instead of sulforhodamine B in some experiments and absorbance were measured at 440 nm. The three dose response parameters GI50, TGI and LC50 were calculated for each experimental compound as follows [48]: For values where Ti ≥ Tz the formula is [ (Ti-Tz) / (C-Tz)] x 100 For values where Ti < Tz the formula is [ (Ti-Tz) / Tz] x 100 Where Ti is the absorbance of the solubilized Sulforhodamine B (SRB) (representing the number of cells) of the five different concentrations of the compound used in the test, Tz is the absorbance of the SRB at time zero, and C is the absorbance of the SRB of the control growth.

MGH-U1R cell line = tested on: MGH-U1R cell line; parameters: method as in PMID 25431950; details: cited from earlier work

## CC[C@@H](CO)NCCN[C@@H](CC)CO [Ethambutol, reference compound]
[1]; 5 μg/mL
  Effect on M. tuberculosis H37Rv: Inhibition

## NNC(=O)c1ccncc1 [Isoniazid, reference compound]
[1]; 0.1 μg/mL
  Effect on M. tuberculosis H37Rv: Inhibition

## COc1cccc2c1C(=O)c1c(O)c3c(c(O)c1C2=O)C[C@@](O)(C(=O)CO)C[C@@H]3O[C@H]1C[C@H](N)[C@H](O)[C@H](C)O1 [Doxorubicin, doxorubicin, reference compound]
[2]
  cytotoxicity towards normal cardiac myoblast H9c2 cells: potent dose dependent cytotoxic effect
MGH-U1R cell line
  resistance of MGH-U1R cell line: 40 fold

## [H]/N=C(/N)N[C@H]1[C@H](O)[C@@H](O)[C@H](O[C@@H]2O[C@@H](C)[C@](O)(C=O)[C@H]2O[C@@H]2O[C@@H](CO)[C@H](O)[C@@H](O)[C@@H]2NC)[C@@H](N/C(N)=N\[H])[C@@H]1O [Streptomycin, reference compound]
[1]; 1 μg/mL
  Effect on M. tuberculosis H37Rv: Inhibition

## CO[C@H]1/C=C/O[C@@]2(C)Oc3c(C)c(O)c4c(O)c(c(/C=N/N5CCN(C)CC5)c(O)c4c3C2=O)NC(=O)/C(C)=C\C=C\[C@H](C)[C@H](O)[C@@H](C)[C@@H](O)[C@@H](C)[C@H](OC(C)=O)[C@@H]1C [Rifampin, reference compound]
[1]; 1 μg/mL
  Effect on M. tuberculosis H37Rv: Inhibition
